These results are taken from BindingDB's records for doi:10.1016/j.bmcl.2009.09.123 (Genomics Institute of The Novartis Research Foundation, 2009).

Assay [1] is described as follows: Inhibition of Tel-fused LYN expressed in mouse BAF3 cells.
A short description of assay [2]: Inhibition of Tel-fused LCK expressed in mouse BAF3 cells.
Assay [3] in a line: Inhibition of Tel-fused SRC expressed in mouse BAF3 cells.
The nature of assay [4]: Inhibition of Tel-fused KDR expressed in mouse BAF3 cells.

A value given as a limit tells only on which side of the number the result lay.

Regarding `Cc1ccc(NC(=O)c2cc(Cl)cc(Cl)c2)cc1Nc1nc2ccccc2n1-c1cc(N)ncn1` [N-(3-(1-(6-aminopyrimidin-4-yl)-1H-benzo[d]imidazol-2-ylamino)-4-methylphenyl)-3,5-dichlorobenzamide], the IC50 in assay [1] came to 3610 nM; in assay [2] it was 1070 nM; in assay [3], 9690 nM; in assay [4], 6360 nM.
On the same counts, the results for `Cc1ccc(C(=O)Nc2cccc3cnccc23)cc1Nc1nc2ccccc2n1-c1cc(N)ncn1` [3-(1-(6-aminopyrimidin-4-yl)-1H-benzo[d]imidazol-2-ylamino)-N-(isoquinolin-5-yl)-4-methylbenzamide] are 7840 nM, 3240 nM, 7610 nM and 10600 nM.
Take `Cc1ccc(NC(=O)c2cccc(C(F)(F)F)c2)cc1Nc1nc2ccccc2n1-c1cc(N2CCOCC2)ncn1` [N-(4-methyl-3-(1-(6-morpholinopyrimidin-4-yl)-1H-benzo[d]imidazol-2-ylamino)phenyl)-3-(trifluoromethyl)benzamide]: the IC50 in assay [1], in assay [2], in assay [3] and in assay [4] was over 10000 nM each time.
Turning to `Cc1ccc(NC(=O)c2cccc(C(F)(F)F)c2)cc1Nc1nc2ccccc2n1-c1cc(NCCc2ccccn2)ncn1` [N-(4-methyl-3-(1-(6-(2-(pyridin-2-yl)ethylamino)pyrimidin-4-yl)-1H-benzo[d]imidazol-2-ylamino)phenyl)-3-(trifluoromethyl)benzamide], the IC50 in assay [1] was 259 nM; in assay [2] it was 171 nM; in assay [3], 524 nM; in assay [4], 549 nM.
On to `Cc1ccc(C(=O)Nc2cccc(C(C)C)c2)cc1Nc1nc2ccccc2n1-c1cc(N)ncn1` [3-(1-(6-aminopyrimidin-4-yl)-1H-benzo[d]imidazol-2-ylamino)-N-(3-isopropylphenyl)-4-methylbenzamide], for which the IC50 in assay [1] was determined as 15 nM; in assay [2], 7 nM; in assay [3] it was 21 nM; in assay [4] it was 17 nM.
On the same counts, the results for `Cc1ccc(NC(=O)c2cccc(C(F)(F)F)c2)cc1Nc1nc2ccccc2n1-c1cc(N[C@H]2CC[C@H](N)CC2)ncn1` [N-(3-(1-(6-(trans-4-aminocyclohexylamino)pyrimidin-4-yl)-1H-benzo[d]imidazol-2-ylamino)-4-methylphenyl)-3-(trifluoromethyl)benzamide] are 547 nM, 392 nM, 739 nM and 609 nM.
On the same counts, the results for `Cc1ccc(C(=O)Nc2cccc(C(C)(C)C)c2)cc1Nc1nc2ccccc2n1-c1cc(N)ncn1` [3-(1-(6-aminopyrimidin-4-yl)-1H-benzo[d]imidazol-2-ylamino)-N-(3-tert-butylphenyl)-4-methylbenzamide] are 16 nM, 16 nM, 202 nM and 52 nM.
The corresponding values for `Cc1ccc(NC(=O)c2cc(N3CCN(C)CC3)cc(C(F)(F)F)c2)cc1Nc1nc2ccccc2n1-c1cc(N)ncn1` [N-(3-(1-(6-aminopyrimidin-4-yl)-1H-benzo[d]imidazol-2-ylamino)-4-methylphenyl)-3-(4-methylpiperazin-1-yl)-5-(trifluoromethyl)benzamide] are 6 nM, 3 nM, 47 nM and 43 nM.
Take `Cc1ccc(C(=O)Nc2cccc(C(F)(F)F)c2)cc1Nc1nc2ccccc2n1-c1cc(NCCN2CCN(C)CC2)ncn1` [4-methyl-3-(1-(6-(2-(4-methylpiperazin-1-yl)ethylamino)pyrimidin-4-yl)-1H-benzo[d]imidazol-2-ylamino)-N-(3-(trifluoromethyl)phenyl)benzamide]: the IC50 in assay [1] is 113 nM; in assay [2] it was 45 nM; in assay [3] it was 527 nM; in assay [4], 185 nM.
The corresponding values for `Cc1cccc(NC(=O)c2ccc(C)c(Nc3nc4ccccc4n3-c3cc(N)ncn3)c2)c1` [3-(1-(6-aminopyrimidin-4-yl)-1H-benzo[d]imidazol-2-ylamino)-4-methyl-N-m-tolylbenzamide] are 1080 nM, 83 nM, 7170 nM and 1020 nM.
The corresponding values for `Cc1ccc(C(=O)Nc2cccc(C(F)(F)F)c2)cc1Nc1nc2ccccc2n1-c1cc(NCCCCN(C)C)ncn1` [3-(1-(6-(4-(dimethylamino)butylamino)pyrimidin-4-yl)-1H-benzo[d]imidazol-2-ylamino)-4-methyl-N-(3-(trifluoromethyl)phenyl)benzamide] are 134 nM, 38 nM, 556 nM and 249 nM.
Turning to `Cc1ccc(NC(=O)c2cccc(C(F)(F)F)c2)cc1Nc1nc2ccccc2n1-c1cc(NCCO)ncn1` [N-(3-(1-(6-(2-hydroxyethylamino)pyrimidin-4-yl)-1H-benzo[d]imidazol-2-ylamino)-4-methylphenyl)-3-(trifluoromethyl)benzamide], the IC50 in assay [1] was 400 nM; in assay [2], 229 nM; in assay [3], 1700 nM; in assay [4] it was 590 nM.
Turning to `Cc1cccc(NC(=O)c2ccc(C)c(Nc3nc4ccccc4n3-c3cc(NCCCN4CCN(C)CC4)ncn3)c2)c1` [4-methyl-3-(1-(6-(3-(4-methylpiperazin-1-yl)propylamino)pyrimidin-4-yl)-1H-benzo[d]imidazol-2-ylamino)-N-m-tolylbenzamide], the IC50 in assay [1] is 1230 nM; in assay [2] it was 337 nM; in assay [3] it was 1410 nM; in assay [4], 1110 nM.
On the same counts, the results for `Cc1ccc(NC(=O)c2cccc(C(F)(F)F)c2)cc1Nc1nc2ccccc2n1-c1cc(NCCCCN)ncn1` [N-(3-(1-(6-(4-aminobutylamino)pyrimidin-4-yl)-1H-benzo[d]imidazol-2-ylamino)-4-methylphenyl)-3-(trifluoromethyl)benzamide] are 457 nM, 366 nM, 1660 nM and 599 nM.
The corresponding values for `Cc1ccc(NC(=O)c2cccc(C(F)(F)F)c2)cc1Nc1nc2ccccc2n1-c1cc(NCCCN)ncn1` [N-(3-(1-(6-(3-aminopropylamino)pyrimidin-4-yl)-1H-benzo[d]imidazol-2-ylamino)-4-methylphenyl)-3-(trifluoromethyl)benzamide] are 1120 nM, 387 nM, 1320 nM and 1470 nM.
On the same counts, the results for `Cc1ccc(C(=O)Nc2cccc(Cl)c2)cc1Nc1nc2ccccc2n1-c1cc(N)ncn1` [3-(1-(6-aminopyrimidin-4-yl)-1H-benzo[d]imidazol-2-ylamino)-N-(3-chlorophenyl)-4-methylbenzamide] are over 10000 nM, 76 nM, over 10000 nM and 260 nM.
Consider `Cc1cc(NC(=O)c2ccc(C)c(Nc3nc4ccccc4n3-c3cc(N)ncn3)c2)ccn1` [3-(1-(6-aminopyrimidin-4-yl)-1H-benzo[d]imidazol-2-ylamino)-4-methyl-N-(2-methylpyridin-4-yl)benzamide], for which the IC50 in assay [1] is over 10000 nM; in assay [2], 702 nM; in assay [3], over 10000 nM; in assay [4], 135 nM.
In the case of `Cc1ccc(NC(=O)c2cccc(C(F)(F)F)c2)cc1Nc1nc2ccccc2n1-c1cc(NCCN)ncn1` [N-(3-(1-(6-(2-aminoethylamino)pyrimidin-4-yl)-1H-benzo[d]imidazol-2-ylamino)-4-methylphenyl)-3-(trifluoromethyl)benzamide], the IC50 was 1470 nM in assay [1], 470 nM in assay [2], 1290 nM in assay [3] and 1750 nM in assay [4].
The corresponding values for `Cc1ccc(NC(=O)c2cc(C3CC3)n[nH]2)cc1Nc1nc2ccccc2n1-c1cc(N)ncn1` [N-(3-(1-(6-aminopyrimidin-4-yl)-1H-benzo[d]imidazol-2-ylamino)-4-methylphenyl)-3-cyclopropyl-1H-pyrazole-5-carboxamide] are 96 nM, 50 nM, 56 nM and 48 nM.
The corresponding values for `Cc1cccc(NC(=O)c2ccc(C)c(Nc3nc4ccccc4n3-c3cc(NCCCCN(C)C)ncn3)c2)c1` [3-(1-(6-(4-(dimethylamino)butylamino)pyrimidin-4-yl)-1H-benzo[d]imidazol-2-ylamino)-4-methyl-N-m-tolylbenzamide] are 1380 nM, 531 nM, 1270 nM and 1500 nM.
On the same counts, the results for `Cc1ccc(C(=O)Nc2cccc(C(F)(F)F)c2)cc1Nc1nc2ccccc2n1-c1cc(N)ncn1` [3-(1-(6-aminopyrimidin-4-yl)-1H-benzo[d]imidazol-2-ylamino)-4-methyl-N-(3-(trifluoromethyl)phenyl)benzamide] are 15 nM, 20 nM, over 10000 nM and 55 nM.
Regarding `CCN(CC)CCNc1cc(-n2c(Nc3cc(NC(=O)c4cccc(C(F)(F)F)c4)ccc3C)nc3ccccc32)ncn1` [N-(3-(1-(6-(2-(diethylamino)ethylamino)pyrimidin-4-yl)-1H-benzo[d]imidazol-2-ylamino)-4-methylphenyl)-3-(trifluoromethyl)benzamide], the IC50 was 642 nM in assay [1], 418 nM in assay [2], 398 nM in assay [3] and 1730 nM in assay [4].
On the same counts, the results for `COc1cc(-n2c(Nc3cc(NC(=O)c4cccc(C(F)(F)F)c4)ccc3C)nc3ccccc32)ncn1` [N-(3-(1-(6-methoxypyrimidin-4-yl)-1H-benzo[d]imidazol-2-ylamino)-4-methylphenyl)-3-(trifluoromethyl)benzamide] are over 10000 nM, over 10000 nM, over 10000 nM and over 10000 nM.
